Values quoted from earlier work, collected in patent US20080097086A1, “Process for preparing anti-tumor oligosaccharide material from chitosan” (TENWELL BIOTECHNOLOGY LIMITED, priority 2006, published 2008).
Several values for one entry are separate records, joined by “and”; a condition that tells them apart may be missing. Equal values may be shown once.

How the values were obtained:
[1] = system: fibrosarcoma (Meth-A) solid tumor cells
S180 = conditions: intravenous, S180-implanted ddY mice

## chitohexaose
[1]; Meth-A solid tumor
  dose displaying the strongest effect: 10 mg/kg
[1]; in vivo
  inhibition of Meth-A solid tumor: significant inhibition
S180; 3 times at 100 mg/Kg/d, after seven days, 100 mg/kg/day
  inhibitory rate on tumor growth: 85% and 93%
S180; increased to 5 times
  control of tumor growth: complete control of tumor growth
